In US12138034B2, “Gastroretentive articles for alcohol sensing” (priority 2020, dated 2024):
Entries after “also recorded” stand apart in the source; their conditions may differ.

Tests used:
Type in all cases: physicochemical
[1] = Stability of drug-polymer pills in SGF (polymer protection metric); details: 3 days in SGF, 37° C., 200 rpm, n=3
Procedure: Drug-polymer pills were incubated in a shaking incubator at 37° C. and 200 rpm in 50 mL of SGF for 3 days with fluid replaced every day. Then, drug-polymer pills were transferred to acetonitrile for extraction of drug from the polymer pill. The average of extracted amount (n=3) was normalized to the average of extracted drug from drug-polymer pills placed directly in acetonitrile (n=3) to yield the polymer protection metric plotted. PCL protects 89.75% of sofosbuvir, 82.39% of daclatasvir, and 87.11% of ribavirin. Silicone protected 98.96% of ledipasvir.

[2] = In vitro drug release from individual drug-polymer pills; details: 37° C., 200 rpm, 50 mL fluid; varying PCL molecular weight, coating, drug loading, SA/V ratio, excipients
Description: FIGS. 11A-11E show fabrication and in vitro release of direct-acting antivirals (DAAs) from individual drug-polymer pills, according to one set of embodiments. FIG. 11A. Drug-polymer pills are made by mixing drug with either silicone or poly(ε-caprolactone) (PCL) and then casting into a Petri dish or a three-dimensional (3-D) printed mold. Drug-silicone pills are extracted using a biopsy punch, and drug-PCL pills are extracted with a razor blade. Pills are then spray-coated with a pan coater. A cross-sectional image of a PCL-coated drug-PCL pill is shown. FIG. 11B. In vitro release of sofosbuvir from a drug pill in water with varying molecular weight of PCL. FIG. 11C. In vitro release of daclatasvir from a drug pill in water with varying molecular weight of PCL and PCL coating. FIG. 11D. In vitro release of ledipasvir from a drug pill in acetonitrile with varying silicone hardness. FIG. 11E. In vitro release of ribavirin from a drug pill in water with molecular weight of PCL and drug loading percentage. Error bars represent SD for n=3 samples.
LA-DAAS prototyping and in vitro drug release. LA-DAAS were assembled and in vitro drug release was evaluated by High-Performance Liquid Chromatography (HPLC) as previously described, with modifications including novel formulations for DAAs (FIGS. 14A-14B).(17) The following drugs were acquired: sofosbuvir (Hefei Hirisun Pharmatech Co., Ltd, Hefei, China), daclatasvir and ledipasvir (Hangzhou APIChem Technology Co, Ltd., Hangzhou, Zhejiang, China), and ribavirin (ChemShuttle, Hayward, CA). […] Drug loading percentages were determined relative to the final polymer mixture weight: sofosbuvir (50%), daclastasvir (40%), ledipasvir (40%), and ribavirin (40%). […] Drug concentrations were then analyzed using an Agilent 1260 Infinity II HPLC system. […] For evaluation of the safety and residence time of the LA-DAAS, the animals were clinically assessed twice a day for evidence of GI obstruction including inappetence, abdominal distension, lack of stool, and vomiting. […]

[3] = Stability of DAAs in simulated gastric fluid (SGF, pH=2), HPLC
Procedure: FIGS. 17A-17C show stability of DAAs in simulated gastric fluid (SGF, pH=2), according to one set of embodiments. All DAAs were dissolved in SGF and placed in a shaking incubator (200 rpm, 37° C.). Samples were collected at defined time points for up to 4 weeks and analyzed by HPLC to quantify stability. […] FIG. 17A. Stability of sofosbuvir in SGF. FIG. 17B. Stability of daclatasvir in SGF. FIG. 17C. Stability of ribavirin in SGF. Error bars represent SD for n=3 samples in each group.

NC(=O)c1ncn([C@@H]2O[C@H](CO)[C@@H](O)[C@H]2O)n1 [ribavirin]
polymer protection (drug extracted after SGF, normalized to pills placed directly in acetonitrile) ([1]; drug-PCL pill): 87.11%
in vitro release rate from drug-polymer pills (trend, words) [2]: increased at higher PCL molecular weight and with a higher drug loading percentage

CC(C)OC(=O)[C@H](C)N[P@](=O)(OC[C@H]1O[C@@H](n2ccc(=O)[nH]c2=O)[C@](C)(F)[C@@H]1O)Oc1ccccc1 [sofosbuvir]
degradation in SGF ([3]; SGF pH=2, 37° C., 200 rpm, within 7 days): 95%
polymer protection (drug extracted after SGF, normalized to pills placed directly in acetonitrile) ([1]; drug-PCL pill): 89.75%
in vitro release rate from drug-polymer pills (trend, words) [2]: increased as the molecular weight of PCL increased from 25,000 to 80,000; also recorded: Increasing the surface area to volume ratio of the pill also increased the sofosbuvir release rate; also recorded: increases the release rate of sofosbuvir; also recorded: Drug release increases as the SA/V ratio increases

COC(=O)N[C@H](C(=O)N1CC2(CC2)C[C@H]1c1ncc(-c2ccc3c(c2)C(F)(F)c2cc(-c4ccc5nc([C@@H]6[C@H]7CC[C@H](C7)N6C(=O)[C@@H](NC(=O)OC)C(C)C)[nH]c5c4)ccc2-3)[nH]1)C(C)C [ledipasvir]
stability in SGF ([3]; SGF pH=2, no HPLC signal detected at t=0): degraded immediately in acid
polymer protection (drug extracted after SGF, normalized to pills placed directly in acetonitrile) ([1]; drug-silicone pill): 98.96%
in vitro release rate from drug-polymer pills (trend, words) [2]: faster release rate
